Experimental data taken from patent US20210361224A1, “BIOLOGICAL GAS (VOCs) MEASURMENT DEVICE” (National University Corporation Tokyo Medical and Dental …, priority 2017, published 2021).
Read-outs that look alike come from different tables or passages of the source.

Columns and labels:
[1] = palm of hand; 0.4 g of ethanol per kilogram of body weight orally ingested; measured 10 to 40 minutes after drinking
[2] = compared with ethanol in exhaled breath, test subject ingested 0.4 g/kg of body weight of ethanol by drinking

- time after drinking at which concentration of ethanol released from the skin reached a peak value [1]: 32 min
- delay until the amount of ethanol contained in skin gas peaks ([2]; collector attached to back of hand): approximately 23 minutes
- delay until the amount of ethanol contained in skin gas peaks ([2]; collector attached to wrist on the palm side): approximately 18 minutes
SMILES: CCO [ethanol]
